Source: publication PMC9828224, “Expansion of the Catalytic Repertoire of Alcohol Dehydrogenases in Plant Metabolism” (Angewandte Chemie (International Ed. in English), 2022)

What was measured:
[1] = target: T1, GS (Catharanthus roseus, UniProt W8JWW7); experiment: X-ray crystal structure of complex, […] Å; type: binding; conditions: active site; catalytic and structural zinc bound
T1 construct: construct details only in supplement

[2] = target: T2, CrDPAS (Catharanthus roseus, UniProt A0A1B1FHP3); experiment: enzymatic turnover, products by MS and NMR with deuterated cofactor; type: biochemical; conditions: NADPH or 4-pro-R-NADPD; 1,4-iminium reduction
T2 construct: gene DPAS; construct details only in supplement; text prints PDB 8B26 for both CrDPAS and apo TiDPAS2
T2 sequence (A0A1B1FHP3 1-365): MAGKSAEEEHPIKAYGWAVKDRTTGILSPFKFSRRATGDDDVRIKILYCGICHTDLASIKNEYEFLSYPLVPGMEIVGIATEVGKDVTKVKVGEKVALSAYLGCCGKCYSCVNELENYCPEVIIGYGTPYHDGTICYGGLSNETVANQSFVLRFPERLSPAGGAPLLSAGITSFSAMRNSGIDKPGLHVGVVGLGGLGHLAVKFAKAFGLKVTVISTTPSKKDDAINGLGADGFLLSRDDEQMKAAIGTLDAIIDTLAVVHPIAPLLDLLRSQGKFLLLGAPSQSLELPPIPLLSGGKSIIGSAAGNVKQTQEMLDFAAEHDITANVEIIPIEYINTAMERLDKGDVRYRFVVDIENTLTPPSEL

T1 sequence (W8JWW7 2-364): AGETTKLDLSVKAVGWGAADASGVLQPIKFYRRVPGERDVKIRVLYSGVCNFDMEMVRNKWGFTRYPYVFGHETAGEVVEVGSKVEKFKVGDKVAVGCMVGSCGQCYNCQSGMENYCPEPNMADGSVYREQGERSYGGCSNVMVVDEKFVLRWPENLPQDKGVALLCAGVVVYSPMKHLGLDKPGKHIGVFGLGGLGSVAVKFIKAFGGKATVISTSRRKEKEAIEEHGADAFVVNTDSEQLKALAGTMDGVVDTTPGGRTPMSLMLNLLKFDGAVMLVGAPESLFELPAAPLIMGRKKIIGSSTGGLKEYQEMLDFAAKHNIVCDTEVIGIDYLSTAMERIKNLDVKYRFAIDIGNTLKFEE

| Compound | X-ray crystal structure of complex, 2.00 Å [1] | enzymatic turnover, products by MS and NMR with deuterated cofactor [2] |
| --- | --- | --- |
| NC(=O)c1ccc[n+]([C@@H]2O[C@H](COP(=O)(O)OP(=O)(O)OC[C@H]3O[C@@H](n4cnc5c(N)ncnc54)[C@H](OP(=O)(O)O)[C@@H]3O)[C@@H](O)[C@H]2O)c1 [NADP+] | Active site of GS co‐crystallised with NADP^+ |  |
| C/C=C1/C=[N+]2CCc3c([nH]c4ccccc34)[C@@](COC(C)=O)(C(=O)OC)[C@H]1CC2 [precondylocarpine acetate] |  | we observed product formation when only DPAS and NADPH is incubated with precondylocarpine acetate |
